From patent US7208572B2, “Leptin-related peptides” (Albany Medical College, priority 1998, dated 2007)
Marks after values point to notes of the source that are not given here. Square brackets hold non-standard residues; d marks the D form. Ends that are not written are not given here.

Legend:
Format in all cases: in vivo, mouse
[1] = Truncated and D-amino acid-substituted analogs: body weight, food and water intake in female C57BL/6J ob/ob mice, 7 days; settings: for Cumulative food intake g/mouse3 g/mouse3 / Decrease(%) of cumulative food intake / Cumulative water intake / Cumulative food intake / Heavier (+) or lighter (−) than initial weight / Weight gain (+) or loss (−): 1 mg/day ip; for Decrease(%) of cumulative food intake / Increase (+) or decrease (−) of cumulative water intake / Increase (+) or decrease (−) of cumulative food intake: vs vehicle; for Food intake relative to OB3: truncated analogs; for Cumulative food intake / Heavier (+) or lighter (−) than initial weight / Weight gain (+) or loss (−) / Increase (+) or decrease (−) of cumulative food intake: D-analog series
Method: A. Housing: 6–8-week old homozygous female obese (ob/ob) and wild type (+1+) mice (C57BL/6J, Jackson Laboratory, Bar Harbor, Maine) were maintained in a temperature-controlled room (24° C.) in the Albany Medical College Animal Resources Facility under alternating 12-h light and dark periods (lights on 0700–1900 h). The animals were housed three per cage, and allowed food and water ad libitum for six days following their arrival.
Food and water remaining after 24 h was measured to the nearest 0.1 g and 0.1 ml, respectively, and the average amount consumed per mouse was calculated (mean±SEM, n=6). The mice were weighed once daily between 0900 and 1100 h on an Acculab V-333 electronic balance (Cole-Parmer, Vernon Hills, Ill.)
C. […] Control mice received 0.2 ml PBS (ip) only.
Female C7BL/6J ob/ob mice were given a single ip injection of vehicle (PBS, pH 7.2), LEP-(116–130) or truncated peptide (1 mg/200 ul PBS) for seven consecutive days. Daily changes in body weight compared to pretreatment weights of vehicle-injected control and peptide-treated mice were analyzed.

[2] = Blood glucose in female C57BL/6J ob/ob mice (Example 11); settings: 1 mg/day ip
Method: D. Measurement of blood glucose: Blood was drawn from the tail vein of each mouse 2 h before the onset of the dark period at the beginning of the study, and after 2, 4, and 6 days of peptide treatment. The blood was applied to a test strip, and glucose levels were measured with a Glucometer Elite (Bayer, Elkhart, Ind.) glucose monitor.

[3] = Epitope mapping: body weight and food intake in female C57BL/6J ob/ob mice, 7 daily ip injections; settings: 7 days; for Cumulative food intake / Percent heavier (+) or lighter (−) than initial weight / Weight gain (+) or loss (−): 1 mg/day ip
Method: Animal procedures. Feeding and weighing schedules, as well as peptide administration protocols, are as described in EXAMPLE 8, supra.
Statistical analysis. Changes in body weight and differences in food intake between peptide-treated and vehicle-injected control mice were analyzed by analysis of variance (ANOVA) and considered significant when P<0.05.
Female ob/ob mice (n=6 per group) were given a single ip injection of 0.2 ml of vehicle (PBS, pH 7.2) or leptin-related synthetic peptide amide in 0.2 ml PBS for 7 consecutive days. Daily changes in body weight compared to pretreatment weights in both vehicle-injected control and peptide-treated mice are shown in FIG. 4. […] There was no evidence of weight loss in response to peptide treatment.

[4] = 12-day ip study of body weight gain and food intake in female C57BL/6J ob/ob mice; settings: 1 mg/day ip, 12 days
Method: The graphs show changes in body weight (expressed as percent of initial weight) and food intake (expressed as mg/gm body weight/mouse) for mice given vehicle or synthetic leptin-related peptide OB3 (1 mg/day, ip, 12 days).
Mice were injected with leptin-related synthetic peptide (1 mg/g body weight, ip) or vehicle daily for 12 consecutive days. Each bar represents mean±SEM food consumption per mouse (n=6 mice per group) after 3, 6, 9 and 12 days of treatment.
Each value represents mean±SEM change in body weight for a group of 6 mice.
Mice were injected with leptin-related synthetic peptide (1 mg/g body weight, ip) or vehicle for 12 consecutive days. Each bar and vertical line represents mean±food consumption per mouse (n=6 mice per group) after 3, 6, 9 and 12 days of treatment.

With SCSLPQTSG [LEP-(116–124)] the “Cumulative food intake g/mouse3 g/mouse3” value ([1]; 7 days) was 34.6 ± 0.9 g/mouse, the “Decrease(%) of cumulative food intake” value ([1]; 7 days) was 22.6% and the “Food intake relative to OB3” value ([1]; 7 days) was “equivalent to that of mice treated with OB3”.

In the case of S[dC]SLPQT [[D-Cys-2]-OB3], the Cumulative water intake ([1]; 7 days) is reported as 62.7 ± 1.7 ml/mouse, the Cumulative food intake ([1]; 7 days) is reported as 47.6 ± 0.8 g/mouse and the “Heavier (+) or lighter (−) than initial weight” value ([1]; 7 days) is reported as “+12.8%”. The “Weight gain (+) or loss (−)” value ([1]; 7 days) was “+4.8 ± 0.11 g”, the “Food intake of D-analogs” value ([1]; 7 days) was “reduced food intake when compared to vehicle-injected control mice, but not to the level seen in mice receiving OB3” and the “Increase (+) or decrease (−) of cumulative water intake” value [1] was −2.3%. For the same substance, the “Increase (+) or decrease (−) of cumulative food intake” value [1] was −5.6%, the Serum glucose level ([2]; Day 2) was 298.0 ± 27.9 mg/dL and the Serum glucose level ([2]; Day 4) was 403.0 ± 41.1 mg/dL. The Serum glucose level ([2]; Day 6) was 346.2 ± 31.7 mg/dL.

In the case of “A V P I Q K V Q D D T K T L I (AVPIQKVQDDTKTLI) [LEP(21–35)]”, the Cumulative food intake [3] is reported as 39.1 ± 1.0 gm/mouse, the “Percent heavier (+) or lighter (−) than initial weight” value (“Percent heavier (+) or lighter” for short) [3] is reported as “+24.0%” and the “Weight gain (+) or loss (−)” value [3] is reported as “+6.2 g”. For the same substance, the “Body weight gain and food intake vs vehicle” value [4] was “not significantly (i.e., P>0.05) different”.

With SCSLPQTS [LEP-(116–123)] the “Cumulative food intake g/mouse3 g/mouse3” value ([1]; 7 days) was 34.3 ± 10 g/mouse, the “Decrease(%) of cumulative food intake” value ([1]; 7 days) was 23.3% and the “Food intake relative to OB3” value ([1]; 7 days) was “equivalent to that of mice treated with OB3”.

In the case of “Ser-Cys-[D-Ser]-Leu-Pro-Gln-Thr (SC[dS]LPQT) [[D-Ser-3]-OB3]”, the Cumulative water intake ([1]; 7 days) is reported as 53.2 ± 1.1 ml/mouse, the Cumulative food intake ([1]; 7 days) is reported as 45.9 ± 0.6 g/mouse and the “Heavier (+) or lighter (−) than initial weight” value ([1]; 7 days) is reported as “+13.2%”. For the same substance, the “Weight gain (+) or loss (−)” value ([1]; 7 days) was “+4.7 ± 0.67 g”, the “Food intake of D-analogs” value ([1]; 7 days) was “reduced food intake when compared to vehicle-injected control mice, but not to the level seen in mice receiving OB3” and the “Increase (+) or decrease (−) of cumulative water intake” value [1] was −17.1%. The “Increase (+) or decrease (−) of cumulative food intake” value [1] was −8.9%, the Serum glucose level ([2]; Day 2) was 385.0 ± 10.0 mg/dL and the Serum glucose level ([2]; Day 4) was 337.0 ± 43.6 mg/dL. For the same substance, the Serum glucose level ([2]; Day 6) was 348.2 ± 14.0 mg/dL.

For “V Y Q Q V L T S L P S Q N V L (VYQQVLTSLPSQNVL) [LEP(81–95)]”, the Cumulative food intake [3] was 39.5 ± 1.1 gm/mouse, the “Percent heavier (+) or lighter” value [3] was “+26.0%” and the “Weight gain (+) or loss (−)” value [3] was “+6.2 g”.

With “S Q N V L Q I A N D L E N L R (SQNVLQIANDLENLR; not fully specified (N-terminus)) [LEP(91–105)]” the Cumulative food intake [3] was 36.1 ± 0.7^b gm/mouse, the “Percent heavier (+) or lighter” value [3] was “+18.6%” and the “Weight gain (+) or loss (−)” value [3] was “+5.2 g”. The “Food intake vs vehicle” value [3] was “significantly (P=0.01) less than vehicle-injected control mice”.

For “Ser-Cys-Ser-Leu-Pro (SCSLP; printed: Ser-Cys-Ser-Leu-Pro) [LEP-(116–120)]”, the “Cumulative food intake g/mouse3 g/mouse3” value ([1]; 7 days) was 42.4 ± 1.2 g/mouse, the “Decrease(%) of cumulative food intake” value ([1]; 7 days) was 6.2% and the “Food intake less than vehicle-injected control mice” value ([1]; 7 days) was 6.2%. The “Body weight gain and food intake vs vehicle” value [4] was “did not approximate the activity observed with LEP(116–130)”.

With “S L S K M D Q T L A V Y Q Q V (SLSKMDQTLAVYQQV) [LEP(71–85)]” the Cumulative food intake [3] was 35.5 ± 1.1^b gm/mouse, the “Percent heavier (+) or lighter” value [3] was “+20.0%” and the “Weight gain (+) or loss (−)” value [3] was “+5.0 g”. The “Food intake vs vehicle” value [3] was “significantly (P=0.01) less than vehicle-injected control mice”.

In the case of “T K T L I K T I V T R I N D I (TKTLIKTIVTRINDI) [LEP(31–45)]”, the Cumulative food intake [3] is reported as 39.5 ± 0.6 gm/mouse, the “Percent heavier (+) or lighter” value [3] is reported as “+26.6%” and the “Weight gain (+) or loss (−)” value [3] is reported as “+6.6 g”. The “Body weight gain and food intake vs vehicle” value [4] was “not significantly (i.e., P>0.05) different”.
